Experimental findings from DBAASP are described below.

≈ marks a conversion by molar mass, not a printed value. Bounds are passed on as bounds.

Test systems include Acinetobacter baumannii; Pseudomonas aeruginosa; Klebsiella pneumoniae; Escherichia coli K-12.
Experiment in all cases: ≥ marks a high value that may be exact or a test limit, other limits are often not marked, values filed in µg/mL are converted to µM
Test [1] relates to Staphylococcus aureus ATCC 25923.
Test [2] relates to Staphylococcus aureus ATCC 33591.
For test [3], the system named is Enterococcus faecium ATCC 700221.
For test [4], the system named is Pseudomonas aeruginosa ATCC 27853.
For test [5], the system named is Candida albicans ATCC 200955.
The subject of test [6] is Escherichia coli ATCC 25922.
Test [7] has as its system Pectobacterium carotovorum subsp. carotovorum DSM 30168.
The subject of test [8] is Xanthomonas vesicatoria DSM 50861.
Test [9] relates to Pseudomonas corrugata DSM 7228.
For test [10], the system named is Pseudomonas syringae pv. tomato DC3000.
Test [11] concerns Clavibacter michiganensis subsp. michiganensis DSM 46294.
In test [12] the test system is Pseudomonas syringae pv. syringae DSM 10604.
The subject of test [13] is Klebsiella pneumoniae ATCC 13883.
The subject of test [14] is Cryptococcus neoformans ATCC 208821.
Test [15] concerns Acinetobacter baumannii ATCC 19606.
Test [16] deals with Bacillus subtilis ATCC 6051.
For test [17], the system named is Staphylococcus aureus ATCC 43300.
The test system of test [18] is Candida albicans ATCC 90028.
Test [19] concerns Klebsiella pneumoniae ATCC 700603.
The subject of test [20] is Klebsiella pneumoniae ATCC BAA-2146.
Test [21] deals with Staphylococcus aureus NCTC 8325-4.
For test [22], the system named is Pseudomonas aeruginosa PAO1.

The term MIC denotes the lowest concentration that inhibits growth of the organism. Read a low MIC as inhibition by little substance.

For `CC[C@H](C)[C@H](NC(=O)[C@H](CCCCN)NC(=O)[C@H](CCCCN)NC(=O)[C@H](CC(C)C)NC(=O)[C@H](CC(C)C)NC(=O)CN)C(=O)N[C@@H](CCCCN)C(=O)N[C@H](C(=O)N[C@@H](CC(C)C)C(=O)N[C@@H](CC(C)C)C(N)=O)[C@@H](C)O` [GLLKKIKTLL], the MIC in [1] was 19.5 µM (≈ 22 µg/mL); in test [2], not below 512 µM; in test [3], not below 171 µM; in test [4] it was 56.8 µM (≈ 63.9 µg/mL); in [5], not below 56.8 µM.
In the case of `CC[C@H](C)[C@H](NC(=O)[C@H](Cc1c[nH]c2ccccc12)NC(=O)[C@H](CCCCN)NC(=O)[C@H](CC(C)C)NC(=O)[C@H](CC(C)C)NC(=O)CN)C(=O)N[C@@H](CCCCN)C(=O)N[C@@H](CCCCN)C(=O)N[C@@H](CC(C)C)C(=O)N[C@@H](CC(C)C)C(N)=O` [GLLKWIKKLL], the minimal inhibitory concentration (MIC) in [6] was determined as 3.2 µM (≈ 3.87 µg/mL); in [2] it was 2.5 µM (≈ 3.03 µg/mL); in test [3] it was 3.2 µM (≈ 3.87 µg/mL); in test [4], 9.5 µM (≈ 11.5 µg/mL); in test [5], 3.2 µM (≈ 3.87 µg/mL).
`CC[C@H](C)[C@H](NC(=O)[C@H](CC(C)C)NC(=O)[C@H](CCCN=C(N)N)NC(=O)[C@H](CCCCN)NC(=O)[C@H](CC(C)C)NC(=O)[C@H](CC(C)C)NC(=O)[C@H](CCCCN)NC(=O)[C@H](CCCCN)NC(=O)[C@H](CCCN=C(N)N)NC(=O)[C@@H](N)CCCCN)C(N)=O` [KRKKLLKRLI]: the MIC was determined as 7.72 µM (≈ 9.99 µg/mL) in test [7]; 7.72 µM (≈ 9.99 µg/mL) in test [8]; 0.386 µM (≈ 0.5 µg/mL) in test [9]; 0.772 µM (≈ 0.999 µg/mL) in test [10]; 7.72 µM (≈ 9.99 µg/mL) in test [11]; 0.0772 µM (≈ 0.1 µg/mL) in test [12].
As to `CC(C)C[C@H](NC(=O)[C@H](CC(C)C)NC(=O)[C@H](CCCN=C(N)N)NC(=O)[C@H](CCCCN)NC(=O)[C@H](CC(C)C)NC(=O)[C@H](CC(C)C)NC(=O)[C@H](CCCCN)NC(=O)[C@H](CCCCN)NC(=O)[C@H](CCCN=C(N)N)NC(=O)[C@@H](N)CCCCN)C(N)=O` [KRKKLLKRLL], the minimum inhibitory concentration (MIC) in test [7] is 7.72 µM (≈ 9.99 µg/mL); in test [8] it was 3.86 µM (≈ 5 µg/mL); in [9], 0.0772 µM (≈ 0.1 µg/mL); in test [10], 0.772 µM (≈ 0.999 µg/mL); in test [11] it was 3.86 µM (≈ 5 µg/mL); in test [12], 0.0772 µM (≈ 0.1 µg/mL).
Consider `CC[C@H](C)[C@@H]1NC(=O)CNC(=O)[C@H](CCCN=C(N)N)NC(=O)[C@H](Cc2ccc(O)cc2)NC(=O)[C@@H](NC(=O)[C@@H](NC(=O)[C@H](CCCN=C(N)N)NC(=O)[C@H](Cc2ccccc2)NC(=O)[C@H](C)NC(=O)[C@H](Cc2c[nH]c3ccccc23)NC(=O)[C@@H](N)CCCCN)C(C)C)CSSC[C@@H](C(=O)N[C@@H](Cc2ccc(O)cc2)C(=O)N[C@@H](CCCN=C(N)N)C(=O)N[C@@H](CCCN=C(N)N)C(=O)N[C@@H](C)C(=O)N[C@@H](CCCN=C(N)N)C(=O)O)NC1=O` [KWAFRVCYRGICYRRAR], for which the MIC in test [13] turned out to be 0.454 µM (≈ 0.999 µg/mL); in test [14] it was 0.454 µM (≈ 0.999 µg/mL); in test [6], 0.113 µM (≈ 0.25 µg/mL); in the test on Acinetobacter baumannii it was 0.227 µM (≈ 0.5 µg/mL); with Pseudomonas aeruginosa, 3.63 µM (≈ 7.99 µg/mL); in test [15], 0.113 µM (≈ 0.25 µg/mL). The MIC in test [16] was 0.0567 µM (≈ 0.125 µg/mL); against Klebsiella pneumoniae it was more than 7.26 µM; in test [17], 3.63 µM (≈ 7.99 µg/mL); in test [18] it was 3.63 µM (≈ 7.99 µg/mL); in test [19], 0.454 µM (≈ 0.999 µg/mL); in [4] it was 0.907 µM (≈ 2 µg/mL). For the same compound, in [20], the MIC turned out to be 0.454 µM (≈ 0.999 µg/mL).
On to `CC[C@H](C)[C@@H]1NC(=O)CNC(=O)[C@H](CCCN=C(N)N)NC(=O)[C@H](Cc2ccc(O)cc2)NC(=O)[C@@H]2CSSC[C@H](NC1=O)C(=O)N[C@@H](Cc1ccc(O)cc1)C(=O)N[C@@H](CCCN=C(N)N)C(=O)N[C@@H](CCCN=C(N)N)C(=O)N[C@H](C(=O)N[C@@H](CCCN=C(N)N)C(=O)O)CSSC[C@H](NC(=O)[C@H](Cc1c[nH]c3ccccc13)NC(=O)[C@@H](N)CCCCN)C(=O)N[C@@H](Cc1ccccc1)C(=O)N[C@@H](C)C(=O)N[C@@H](C(C)C)C(=O)N2` [KWCFAVCYRGICYRRCR], for which the minimum inhibitory concentration (MIC) in test [13] was determined as 0.0572 µM (≈ 0.125 µg/mL); in test [14], 0.115 µM (≈ 0.25 µg/mL); in test [6], 0.0572 µM (≈ 0.125 µg/mL); in the test on Acinetobacter baumannii, 0.0572 µM (≈ 0.125 µg/mL); with Pseudomonas aeruginosa, 0.229 µM (≈ 0.499 µg/mL); in test [15] it was 0.0275 µM (≈ 0.0599 µg/mL). Moreover, the minimal inhibitory concentration (MIC) in test [16] came to 0.0137 µM (≈ 0.0299 µg/mL); in the test with Klebsiella pneumoniae it was 3.66 µM (≈ 7.99 µg/mL); in test [17] it was 0.229 µM (≈ 0.499 µg/mL); in [18], 1.83 µM (≈ 3.99 µg/mL); in test [19], 0.229 µM (≈ 0.499 µg/mL); in [4], 0.115 µM (≈ 0.25 µg/mL). For the same compound, in test [20], the MIC was determined as 0.229 µM (≈ 0.499 µg/mL).
For `CC(C)[C@@H]1NC(=O)[C@H](CCCN=C(N)N)NC(=O)[C@H](Cc2ccccc2)NC(=O)[C@@H](NC(=O)[C@H](Cc2c[nH]c3ccccc23)NC(=O)[C@@H](N)CCCCN)CSSC[C@@H](C(=O)N[C@@H](CCCN=C(N)N)C(=O)O)NC(=O)[C@H](CCCN=C(N)N)NC(=O)[C@H](CCCN=C(N)N)NC(=O)[C@H](Cc2ccc(O)cc2)NC(=O)[C@@H]2CSSC[C@H](NC1=O)C(=O)N[C@@H](Cc1ccc(O)cc1)C(=O)N[C@@H](CCCN=C(N)N)C(=O)NCC(=O)NCC(=O)N2` [KWCFRVCYRGGCYRRCR], the minimum inhibitory concentration (MIC) stood at 0.113 µM (≈ 0.25 µg/mL) in [13]; 0.452 µM (≈ 0.998 µg/mL) in test [14]; 0.113 µM (≈ 0.25 µg/mL) in test [6]; 0.226 µM (≈ 0.499 µg/mL) in the test on Acinetobacter baumannii; 1.81 µM (≈ 3.99 µg/mL) in the test on Pseudomonas aeruginosa; 0.226 µM (≈ 0.499 µg/mL) in [15]. The MIC in test [16] amounted to 0.113 µM (≈ 0.25 µg/mL); in the test with Klebsiella pneumoniae, 3.62 µM (≈ 7.99 µg/mL); in test [17] it was 1.81 µM (≈ 3.99 µg/mL); in test [18], 3.62 µM (≈ 7.99 µg/mL); in test [19], 0.226 µM (≈ 0.499 µg/mL); in test [4] it was 0.452 µM (≈ 0.998 µg/mL). The compound further showed a minimal inhibitory concentration (MIC) in [20] of 0.904 µM (≈ 2 µg/mL).
On to `CC[C@H](C)[C@@H]1NC(=O)CNC(=O)[C@H](CCCN=C(N)N)NC(=O)[C@H](Cc2ccc(O)cc2)NC(=O)[C@@H]2CSSC[C@H](NC1=O)C(=O)N[C@@H](Cc1ccc(O)cc1)C(=O)N[C@@H](CCCN=C(N)N)C(=O)N[C@@H](C)C(=O)N[C@H](C(=O)N[C@@H](CCCN=C(N)N)C(=O)O)CSSC[C@H](NC(=O)[C@H](Cc1c[nH]c3ccccc13)NC(=O)[C@@H](N)CCCCN)C(=O)N[C@@H](Cc1ccccc1)C(=O)N[C@@H](CCCN=C(N)N)C(=O)N[C@@H](C(C)C)C(=O)N2` [KWCFRVCYRGICYRACR], for which the MIC in test [13] worked out at 0.115 µM (≈ 0.25 µg/mL); in [14], 0.115 µM (≈ 0.25 µg/mL); in [6], 0.115 µM (≈ 0.25 µg/mL); against Acinetobacter baumannii, 0.115 µM (≈ 0.25 µg/mL); with Pseudomonas aeruginosa it was 1.83 µM (≈ 3.99 µg/mL); in [15], 0.115 µM (≈ 0.25 µg/mL). In addition, the MIC in test [16] was determined as 0.0137 µM (≈ 0.0299 µg/mL); against Klebsiella pneumoniae it was 7.33 µM (≈ 16 µg/mL); in test [17], 1.83 µM (≈ 3.99 µg/mL); in test [18], 0.916 µM (≈ 2 µg/mL); in [19], 0.916 µM (≈ 2 µg/mL); in test [4], 1.83 µM (≈ 3.99 µg/mL). The compound further returned a minimal inhibitory concentration (MIC) in test [20] of 0.458 µM (≈ 0.998 µg/mL).
Turning to `CC(C)C[C@H](NC(=O)[C@H](CCCCN)NC(=O)[C@H](CCCCN)NC(=O)[C@H](CC(C)C)NC(=O)[C@H](CC(C)C)NC(=O)[C@H](CCCCN)NC(=O)[C@H](CCCCN)NC(=O)[C@@H](N)CC(C)C)C(N)=O` [LKKLLKKL], the minimum inhibitory concentration (MIC) in test [21] was not below 500 µM; against Escherichia coli K-12, not below 500 µM; against Klebsiella pneumoniae it was more than 500 µM; in [22] it was more than 500 µM.
Take `CC[C@H](C)[C@H](NC(=O)[C@H](CC(C)C)NC(=O)[C@H](CCCCN)NC(=O)[C@H](CCCCN)NC(=O)[C@@H](NC(=O)[C@@H](NC(=O)[C@H](CCCCN)NC(=O)[C@H](CCCCN)NC(=O)[C@H](CCCCN)NC(=O)[C@H](CCCCN)NC(=O)[C@H](CCCCN)NC(=O)[C@@H](N)CCCN=C(N)N)[C@@H](C)CC)[C@@H](C)CC)C(N)=O` [RKKKKKIIKKLI]: the MIC is 6.56 µM (≈ 9.99 µg/mL) in [7]; 6.56 µM (≈ 9.99 µg/mL) in [8]; 1.64 µM (≈ 2.5 µg/mL) in [9]; 1.64 µM (≈ 2.5 µg/mL) in [10]; 6.56 µM (≈ 9.99 µg/mL) in test [11]; 0.328 µM (≈ 0.5 µg/mL) in test [12].
